Experimental data published in patent US20250122148A1, “HIGH-SELECTIVITY KCNQ4 POTASSIUM CHANNEL AGONIST, PREPARATION METHOD THEREFOR AND USE THEREOF” (SHANGHAI INSTITUTE OF MATERIA MEDICA, CHINESE ACADEMY OF …, priority 2022, published 2025).

Tests used:
human KCNQ4 = target: T1, human KCNQ4 (Homo sapiens, UniProt P56696); test: Whole-cell voltage clamp of KCNQ4 channel current in transfected CHO-K1 cells; format: cell-based; set-up: key to KCNQ4 (IDrug/IControl 100 nM): IDrug/IControl current amplitude ratio at -10 mV; settings: for KCNQ4 (IDrug/IControl 100 nM): activation efficacy, 100 nM compound, -10 mV test pulse, CHO-K1 cells, mean ± SEM
T1 construct: host or cells: CHO-K1 (Chinese hamster ovary), transient transfection with Lipofectamine 2000, co-transfected with GFP
Protocol: (§1) The cell line used in the electrophysiological experiments was the Chinese hamster ovary cell line (CHO-K1); KCNQ cDNA was transformed into E. coli, expressed in E. coli, and then confirmed by plasmid extraction and sequencing.
(§2) CHO-K1 cells (Cell Bank of Chinese Academy of Sciences), medium formula: 50/50 DMEM/F-12 (Gibco), supplemented with 10% fetal bovine serum (FBS) (Gibco, Australia) and 2 mM L-glutamine (Invitrogen). Transfection and expression of KCNQ channels: 24 hours before transfection, cells were digested with trypsin (Sigma, China) and spread in a 6-well plate. Lipofectamine2000™ reagent (Invitrogen) was used for transfection, and the experiment was carried out according to the procedures provided. Twenty-four hours after transfection, cells were digested and seeded onto poly-L-lysine (Sigma)-soaked slides. After co-transfected with GFP (green fluorescent protein), the transfected cells were determined under a fluorescence microscope (Olympus). The human KCNQ2 plasmid (NCBI: NM_172107.4) and human KCNQ4 plasmid (NCBI: NM_004700.4) used were synthesized by Beijing Genomics Institute and constructed in the pcDNA3.1(+) vector plasmid. KCNQ2 and KCNQ4 plasmids were confirmed by plasmid extraction and sequencing after transformation into E. coli DH5α.
(§3) Whole-cell voltage clamp experiments were carried out at room temperature (23˜25° C.), where Axopatch-700B amplifier (Molecular Devices, Sunnyvale, CA) and Digidata 1440A (Molecular Devices) as digital-to-analog converter were used, pClamp 10.0 software (Molecular Devices, Sunnyvale, CA) was used for signal acquisition, the signal was filtered at 2 kHz, the sampling frequency was 10 kHz. Series resistance compensation was used and set to 60%. Pipettes were pulled from Borosilicate glass capillaries (World Precision Instruments, Sarasota, FL), and the resistance of the pipettes filled with an intracellular fluid was 3-5 MΩ. The perfusion drug delivery system was BPS-8 (ALA Scientific Instruments, Westburg, NY) with a speed of approximately 1 mL/min.
(§4) Intracellular fluid formulation for electrophysiological experiments: 145 mM KCl, 1 mM MgCl2, 5 mM EGTA, 10 mM HEPES, 5 mM MgATP (adjusted to pH=7.3 with KOH).
(§5) Extracellular fluid formulation for electrophysiological experiments: 140 mM NaCl, 5 mM KCl, 2 mM CaCl2), 1.5 mM MgCl2, 10 mM HEPES, 10 mM glucose (adjusted to pH=7.4 with NaOH).
(§6) To record the whole-cell currents of KCNQ2 and KCNQ4 channels, the cells were clamped at a holding potential of −120 mV, and then depolarized to −10 mV for a duration of 1500 ms, and the stimulation frequency was 0.1 Hz. The current amplitudes at the −10 mV test pulse before (IControl) and after (IDrug) the perfusion of the compounds were collected to determine the activation efficacy (IDrug/IControl).
(§7) A certain mass of the compound was weighed and dissolved in DMSO to prepare a 20 mM DMSO stock solution which was frozen and stored at −20° C. until use. […] This kind of concentration of DMSO has no effect on the detected KCNQ channel current. For example, to prepare 100 nM and 1 μM compound solutions, the gradient dilution method was as follows: 5 μL DMSO stock solution was first pipetted and added to 10 mL of extracellular fluid, and was dissolved evenly to obtain a 10 μM compound solution; then 1 mL of 10 μM compound solution was pipetted and added to 9 mL of extracellular fluid, dissolved evenly to obtain a 1 μM compound solution; then 1 mL of 1 μM compound was pipetted and added to 9 mL of extracellular fluid, dissolved evenly to obtain a 100 nM compound solution.
(§8) Data collection, analysis and processing were performed using pClamp10 (Molecular Devices, Sunnyvale, CA), GraphPad Prism 5 (GraphPad Software, San Diego, CA) and Excel (Microsoft Corporation) software. All data are expressed as mean±standard error. (Mean±SEM), significance analysis was performed using unpaired student's t-test. When P<0.05, the difference between the two groups was considered statistically significant. […]

human KCNQ2 = target: T2, human KCNQ2 (Homo sapiens, UniProt O43526); test: Whole-cell voltage clamp of KCNQ2 channel current in transfected CHO-K1 cells; format: cell-based; set-up: key to KCNQ2 (IDrug/IControl 100 nM): IDrug/IControl current amplitude ratio at -10 mV; settings: for KCNQ2 (IDrug/IControl 100 nM): activation efficacy, 100 nM compound, -10 mV test pulse, CHO-K1 cells, mean ± SEM
T2 construct: host or cells: CHO-K1 (Chinese hamster ovary), transient transfection with Lipofectamine 2000, co-transfected with GFP
Protocol: as §1, §2, §3, §4, §5, §6, §7, §8

[1] = in vitro electrophysiological experiments

Row | SMILES | KCNQ4 (IDrug/IControl 100 nM) (human KCNQ4) | KCNQ4 agonistic activity (in words) (human KCNQ4; [1]) | KCNQ2 (IDrug/IControl 100 nM) (human KCNQ2) | KCNQ2 agonistic activity (in words) (human KCNQ2; [1])
1 | C#CCN(Cc1ccc(F)cc1)c1ccc(NC(=O)OC(C)(C)C)cc1 [Compound K31] | 3.06 ± 0.61 | still had good KCNQ4 agonistic activity | 1.07 ± 0.04 | lost KCNQ2 agonistic activity
2 | C#CCN(Cc1ccccc1F)c1ccc(NC(=O)OC(C)(C)C)cc1 [Compound K32] | 2.50 ± 0.28 |  | 1.05 ± 0.02 | 
3 | C#CCN(Cc1cccc(F)c1)c1ccc(NC(=O)OC(C)(C)C)cc1 [Compound K33] | 3.00 ± 0.18 |  | 1.06 ± 0.03 | 
4 | C#CCN(Cc1ccc(C(C)(C)C)cc1)c1ccc(NC(=O)OC(C)(C)C)cc1 [Compound K34] | 4.40 ± 0.62 |  | 1.07 ± 0.04 | 
5 | C#CCN(Cc1ccc(Cl)cc1)c1ccc(NC(=O)OC(C)(C)C)cc1 [Compound K35] | 3.30 ± 0.62 |  | 0.98 ± 0.03 | 
6 | C#CCN(Cc1ccc(Br)cc1)c1ccc(NC(=O)OC(C)(C)C)cc1 [Compound K36] | 3.50 ± 0.28 |  | 1.05 ± 0.03 | 
7 | C#CCN(Cc1ccc(I)cc1)c1ccc(NC(=O)OC(C)(C)C)cc1 [Compound K37] | 3.28 ± 0.21 |  | 1.02 ± 0.04 | 
8 | C#CCN(Cc1ccc([N+](=O)[O-])cc1)c1ccc(NC(=O)OC(C)(C)C)cc1 [Compound K38] | 1.66 ± 0.19 |  | 0.96 ± 0.01 | 
9 | C#CCN(Cc1ccc(F)c(F)c1)c1ccc(NC(=O)OC(C)(C)C)cc1 [Compound K39] | 1.46 ± 0.02 |  | 1.10 ± 0.02 | 
10 | C#CCN(Cc1ccc(F)c(C#N)c1)c1ccc(NC(=O)OC(C)(C)C)cc1 [Compound K40] | 1.26 ± 0.16 |  | 0.97 ± 0.02 | 
11 | C#CCN(Cc1ccc(F)c(C(F)(F)F)c1)c1ccc(NC(=O)OC(C)(C)C)cc1 [Compound K41] | 1.69 ± 0.19 |  | 1.03 ± 0.02 | 
12 | C#CCN(Cc1ccc(F)c([N+](=O)[O-])c1)c1ccc(NC(=O)OC(C)(C)C)cc1 [Compound K42] | 1.35 ± 0.08 |  | 1.02 ± 0.02 | 
13 | C#CCN(Cc1ccc(Br)c(F)c1)c1ccc(NC(=O)OC(C)(C)C)cc1 [Compound K43] | 2.72 ± 0.38 |  | 0.98 ± 0.00 | 
